Values of other authors in patent US11052154B2, “Ras protein degradation inducing molecule and pharmaceutical composition” (Tokyo University of Science Foundation, priority 2016, dated 2021).

Columns and labels:
β2i = β2i (Homo sapiens, UniProt P40306); settings: Table 18, 20S immunoproteasome inhibitor; cited from earlier work
β5i = β5i (Homo sapiens, UniProt P28062); settings: Table 18, 20S immunoproteasome inhibitor; cited from earlier work

For `CCCC[C@@H](C=O)NC(=O)[C@H](CC(C)C)NC(=O)OCc1ccccc1` [IPSI-001], the “Others: immunoproteasome subunit inhibited (β2i)” value (β2i) is given as “β2i is inhibited”.
For `COc1ccc(C[C@H](NC(=O)[C@H](C)NC(=O)CN2CCOCC2)C(=O)N[C@@H](Cc2ccccc2)C(=O)[C@@]2(C)CO2)cc1` [PR-957], the “Others: immunoproteasome subunit inhibited (β5i)” value (β5i) is given as “β5i is inhibited”.
